This is an account of results in PubChem BioAssay (NCI).

Molecules are shown by their SMILES.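 In this assay, cells in 96-well plates receive the compound at five concentrations for 48 hours. Endpoints are linearly interpolated between the surrounding concentrations. TGI marks complete inhibition of growth.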

The first experiment has as its system LOX IMVI melanoma. Put plainly: growth of human tumour cells (NCI), 48 h.
`COC1(OC)c2occc2C(=N)c2ccc(=O)oc21` yielded a TGI of more than 100 µM.

Consider `O=c1[nH]c2[nH]c(=S)[nH]c(=S)c2[nH]1`, for which the TGI is more than 100 µM.

In turn, `CN=c1sc2c(n1C)C(=O)c1ccccc1C2=O` showed a TGI of 10.4 µM.

The compound `COC(=O)c1cc(S(=O)(=O)NC2=NCC(C)NN2)c(S)cc1Cl` (centres undefined) displayed a TGI of more than 100 µM.

The subject of the next experiment is COLO 205 colon. The experiment can be described thus: growth of human tumour cells (NCI), 48 h.
The compound `COC1(OC)c2occc2C(=N)c2ccc(=O)oc21` had a TGI of more than 100 µM.

For the compound `CN=c1sc2c(n1C)C(=O)c1ccccc1C2=O`, the TGI is 11.9 µM.

Turning to `COC(=O)c1cc(S(=O)(=O)NC2=NCC(C)NN2)c(S)cc1Cl` (centres undefined), the TGI was more than 100 µM.

The next experiment has as its system SW-620 colon. Put plainly: growth of human tumour cells (NCI), 48 h.
The compound `COC1(OC)c2occc2C(=N)c2ccc(=O)oc21` yielded a TGI of more than 100 µM.

In turn, `O=c1[nH]c2[nH]c(=S)[nH]c(=S)c2[nH]1` came in with a TGI of more than 100 µM.

Compound `CN=c1sc2c(n1C)C(=O)c1ccccc1C2=O` yielded a TGI of 4.81 µM.

As to `COC(=O)c1cc(S(=O)(=O)NC2=NCC(C)NN2)c(S)cc1Cl` (centres undefined), the TGI was more than 100 µM.

A further experiment has as its system UACC-62 melanoma. Put plainly: growth of human tumour cells (NCI), 48 h.
Turning to `COC1(OC)c2occc2C(=N)c2ccc(=O)oc21`, the TGI is more than 100 µM.

For `O=c1[nH]c2[nH]c(=S)[nH]c(=S)c2[nH]1`, the TGI is more than 100 µM.

`COC(=O)c1cc(S(=O)(=O)NC2=NCC(C)NN2)c(S)cc1Cl` (centres undefined) returned a TGI of more than 100 µM.

A further experiment relates to SF-539 CNS. The experiment can be described thus: growth of human tumour cells (NCI), 48 h.
In the case of `COC1(OC)c2occc2C(=N)c2ccc(=O)oc21`, the TGI was more than 100 µM.

Consider `CN=c1sc2c(n1C)C(=O)c1ccccc1C2=O`, for which the TGI is 4.2 µM.

`COC(=O)c1cc(S(=O)(=O)NC2=NCC(C)NN2)c(S)cc1Cl` (centres undefined) displayed a TGI of more than 100 µM.

The subject of another experiment is HOP-62 NSCLC. Put plainly: growth of human tumour cells (NCI), 48 h.
The compound `COC1(OC)c2occc2C(=N)c2ccc(=O)oc21` registered a TGI of more than 100 µM.

The compound `O=c1[nH]c2[nH]c(=S)[nH]c(=S)c2[nH]1` displayed a TGI of more than 100 µM.

`CN=c1sc2c(n1C)C(=O)c1ccccc1C2=O` gave a TGI of 3.39 µM.

Take `COC(=O)c1cc(S(=O)(=O)NC2=NCC(C)NN2)c(S)cc1Cl` (centres undefined): the TGI was more than 100 µM.

The next experiment deals with HS 578T breast. The experiment can be described thus: growth of human tumour cells (NCI), 48 h.
`COC1(OC)c2occc2C(=N)c2ccc(=O)oc21` showed a TGI of more than 100 µM.

With `O=c1[nH]c2[nH]c(=S)[nH]c(=S)c2[nH]1`, the TGI was more than 100 µM.

The compound `CN=c1sc2c(n1C)C(=O)c1ccccc1C2=O` came in with a TGI of 6.16 µM.

Another experiment concerns ACHN renal. The experiment can be described thus: growth of human tumour cells (NCI), 48 h.
Compound `COC1(OC)c2occc2C(=N)c2ccc(=O)oc21` came in with a TGI of more than 100 µM.

Take `O=c1[nH]c2[nH]c(=S)[nH]c(=S)c2[nH]1`: the TGI is more than 100 µM.

As to `CN=c1sc2c(n1C)C(=O)c1ccccc1C2=O`, the TGI was found to be 19.2 µM.

In the case of `COC(=O)c1cc(S(=O)(=O)NC2=NCC(C)NN2)c(S)cc1Cl` (centres undefined), the TGI was more than 100 µM.

The test system of another experiment is MDA-N. The experiment can be described thus: growth of human tumour cells (NCI), 48 h.
Compound `COC1(OC)c2occc2C(=N)c2ccc(=O)oc21` showed a TGI of more than 100 µM.

Compound `O=c1[nH]c2[nH]c(=S)[nH]c(=S)c2[nH]1` came in with a TGI of more than 100 µM.

As for `CN=c1sc2c(n1C)C(=O)c1ccccc1C2=O`, the TGI stood at 0.467 µM.

Regarding `COC(=O)c1cc(S(=O)(=O)NC2=NCC(C)NN2)c(S)cc1Cl` (centres undefined), the TGI is more than 100 µM.

Another experiment deals with TK-10 renal. Put plainly: growth of human tumour cells (NCI), 48 h.
In the case of `COC1(OC)c2occc2C(=N)c2ccc(=O)oc21`, the TGI is more than 100 µM.

The compound `O=c1[nH]c2[nH]c(=S)[nH]c(=S)c2[nH]1` returned a TGI of more than 100 µM.

`CN=c1sc2c(n1C)C(=O)c1ccccc1C2=O` yielded a TGI of 35.6 µM.

As to `COC(=O)c1cc(S(=O)(=O)NC2=NCC(C)NN2)c(S)cc1Cl` (centres undefined), the TGI was more than 100 µM.

A further experiment deals with OVCAR-4 ovarian. Put plainly: growth of human tumour cells (NCI), 48 h.
`COC1(OC)c2occc2C(=N)c2ccc(=O)oc21`: the TGI is more than 100 µM.

For `O=c1[nH]c2[nH]c(=S)[nH]c(=S)c2[nH]1`, the TGI is more than 100 µM.

With `CN=c1sc2c(n1C)C(=O)c1ccccc1C2=O`, the TGI stood at 11 µM.

Turning to `COC(=O)c1cc(S(=O)(=O)NC2=NCC(C)NN2)c(S)cc1Cl` (centres undefined), the TGI is more than 100 µM.

In a further experiment the test system is 786-0 renal. Put plainly: growth of human tumour cells (NCI), 48 h.
`COC1(OC)c2occc2C(=N)c2ccc(=O)oc21` showed a TGI of more than 100 µM.

In the case of `O=c1[nH]c2[nH]c(=S)[nH]c(=S)c2[nH]1`, the TGI is more than 100 µM.

Compound `CN=c1sc2c(n1C)C(=O)c1ccccc1C2=O` returned a TGI of 20.7 µM.

`COC(=O)c1cc(S(=O)(=O)NC2=NCC(C)NN2)c(S)cc1Cl` (centres undefined) displayed a TGI of more than 100 µM.

For a further experiment, the system named is RPMI-8226 leukemia. The experiment can be described thus: growth of human tumour cells (NCI), 48 h.
Turning to `COC1(OC)c2occc2C(=N)c2ccc(=O)oc21`, the TGI was more than 100 µM.

Compound `O=c1[nH]c2[nH]c(=S)[nH]c(=S)c2[nH]1` returned a TGI of more than 100 µM.

The compound `CN=c1sc2c(n1C)C(=O)c1ccccc1C2=O` came in with a TGI of 24.6 µM.

Compound `COC(=O)c1cc(S(=O)(=O)NC2=NCC(C)NN2)c(S)cc1Cl` (centres undefined) registered a TGI of more than 100 µM.

The next experiment deals with OVCAR-8 ovarian. The experiment can be described thus: growth of human tumour cells (NCI), 48 h.
On to `O=c1[nH]c2[nH]c(=S)[nH]c(=S)c2[nH]1`, for which the TGI was more than 100 µM.

`CN=c1sc2c(n1C)C(=O)c1ccccc1C2=O` registered a TGI of 15.3 µM.

The compound `COC(=O)c1cc(S(=O)(=O)NC2=NCC(C)NN2)c(S)cc1Cl` (centres undefined) had a TGI of more than 100 µM.

Another experiment has as its system SNB-19 CNS. The experiment can be described thus: growth of human tumour cells (NCI), 48 h.
`COC1(OC)c2occc2C(=N)c2ccc(=O)oc21` returned a TGI of more than 100 µM.

Regarding `O=c1[nH]c2[nH]c(=S)[nH]c(=S)c2[nH]1`, the TGI is more than 100 µM.

Take `CN=c1sc2c(n1C)C(=O)c1ccccc1C2=O`: the TGI amounted to 10.1 µM.
